Series [1] relates to K562 (chronic myelogenous leukemia; leukemia cell line +ve for Bcr-Abl). The experiment in a line: Cancer cell assay, K562 tumor cells, viable cells after 96 hours. The format is cell-based. The settings on record: 96 hours after treatment, called IC50. Here is the method:
(§1) The effect of the compounds of the invention on tumor cells was determined by the assay described by Latham et al., Oncogene 12:827-837 (1996). Tumor cells K562 (chronic myelogenous leukemia; leukemia cell line +ve for Bcr-Abl) or DU145 (prostate cancer) were plated in 12-well dishes at a cell density of 2.5×10^4 cells well. The plated cells were treated 24 hours later with a compound of the invention dissolved in DMSO at multiple concentrations ranging from 0.01 μM to 100 μM. The plates were examined 96 hours later under an inverted microscope, Olympus CK-2 using a 10× objective, and compound activity was noted by physical observation. When necessary, the total number of viable cells was determined by trypsinizing the wells and counting the number of viable cells, as determined by trypan blue exclusion, using a hemacytometer.

For another series, the system named is DU145 (prostate cancer). Put plainly: Cancer cell assay, DU145 tumor cells, viable cells after 96 hours. The format is cell-based. The note with it: Homo sapiens, DU-145, 96 hours after treatment, called IC50. Here is the method:
as §1

Counter-ions that a name gives are not always drawn. Where only a bound is given, the exact number is not on record here.

Molecule `COC(=O)c1sc2c(c[n+](C)c3cc(OC)c(OC)cc23)c1N` (as salt: iodide) [Example 30, 3-amino-7,8-dimethoxy-2-(methoxycarbonyl)-5-methylthieno[3,2-c]quinolin-5-ium iodide] showed a melting point of 249 to 251 °C.

`COC(=O)c1sc2c(cnc3cc(OC)c(OC)cc32)c1N` [Example 1, Methyl 3-amino-7,8-dimethoxythieno[3,2-c]quinolone-2-carboxylate] displayed a melting point of 260 to 262 °C. The IC50 in series [1] (Homo sapiens) was found to be 0.15 µM. The same molecule registered an IC50 in the series on DU145 (prostate cancer) of 0.6 µM.

Molecule `CCOC(=O)c1sc2c(cnc3cc(OC)c(OC)cc32)c1N` [Example 2, Ethyl 3-amino-7,8-dimethoxythieno[3,2-c]quinolone-2-carboxylate] came in with a melting point of 215 to 218 °C. The IC50 in series [1] (Homo sapiens) fell in the range of 0.5 to 1 µM. The molecule also showed an IC50 in the series on DU145 (prostate cancer) above 1 µM.

`COc1cc2ncc3c(N)c(C(=O)c4ccc(F)cc4)sc3c2cc1OC` [Example 3, (3-Amino-7,8-dimethoxythieno[3,2-c]quinolin-2-yl)(4-fluorophenyl)methanone] displayed a melting point of 286 to 288 °C. Moreover, in series [1] (Homo sapiens), the IC50 is above 10 µM. Moreover, in the series with DU145 (prostate cancer), the IC50 is above 10 µM.

For the molecule `COC(=O)c1sc2c(cnc3cc(OCc4ccccc4)c(OC)cc32)c1N` [Example 4, Methyl 3-amino-7-benzyloxy-8-methoxythieno[3,2-c]quinolone-2-carboxylate], the melting point lay in the range of 221 to 223 °C. The same molecule displayed an IC50 in series [1] (Homo sapiens) above 10 µM. Further, the IC50 in the series on DU145 (prostate cancer) is above 10 µM.

`COc1cc2ncc3c(N)c(C(=O)C(F)(F)F)sc3c2cc1OC` [Example 5, 1-(3-Amino-7,8-dimethoxythieno[3,2-c]quinolin-2-yl)-2,2,2-trifluoroethanone]: the melting point lay in the range of 230 to 234 °C. The IC50 in series [1] (Homo sapiens) lay in the range of 1 to 10 µM. This molecule also came in with an IC50 in the series with DU145 (prostate cancer) above 10 µM.

On to `COc1cc2ncc3c(N)c(C(C)=O)sc3c2cc1OC` [Example 6, 1-(3-Amino-7,8-dimethoxythieno[3,2-c]quinolin-2-yl)ethanone], for which the melting point was 260 to 263 °C. In series [1] (Homo sapiens), this molecule displayed an IC50 of 0.5 to 1 µM. This molecule also had a half-maximal inhibitory concentration (IC50) in the series with DU145 (prostate cancer) of 1 to 10 µM.

In turn, `COC(=O)c1sc2c(cnc3cc(OC)c(OCc4ccccc4)cc32)c1N` [Example 7, Methyl 3-amino-8-benzyloxy-7-methoxythieno[3,2-c]quinoline-2-carboxylate] showed a melting point of 272 to 274 °C. The IC50 in series [1] (Homo sapiens) was above 10 µM. Further, in the series with DU145 (prostate cancer), the 50% inhibitory concentration (IC50) is above 10 µM.

On to `COc1cc2ncc3c(N)c(C#N)sc3c2cc1OC` [Example 8, 3-Amino-7,8-dimethoxythieno[3,2-c]quinoline-2-carbonitrile], for which the melting point was in the range of 314 to 316 °C. In addition, the IC50 in series [1] (Homo sapiens) lay in the range of 1 to 10 µM. In the series on DU145 (prostate cancer), this molecule came in with a half-inhibitory concentration (IC50) of 10 to 25 µM.

In turn, `COC(=O)c1sc2c(cnc3cc(O)c(OC)cc32)c1N` [Example 9, Methyl 3-amino-7-hydroxy-8-methoxythieno[3,2-c]quinoline-2-carboxylate] gave a melting point of 244 to 246 °C. In series [1] (Homo sapiens), the IC50 is 1 to 10 µM. The IC50 in the series on DU145 (prostate cancer) is above 10 µM.

`COC(=O)c1sc2c(cnc3cc(OC)c(O)cc32)c1N` [Example 10, Methyl 3-amino-8-hydroxy-7-methoxythieno[3,2-c]quinoline-2-carboxylate] displayed a melting point of 277 to 280 °C. In series [1] (Homo sapiens), this molecule came in with an IC50 above 100 µM. The molecule also showed an IC50 in the series with DU145 (prostate cancer) above 100 µM.

`COC(=O)c1sc2c(cnc3cc(OCCCN4CCOCC4)c(OC)cc32)c1N` [Example 11, Methyl 3-amino-8-methoxy-7-(3-morpholinopropoxy)thieno[3,2-c]quinoline-2-carboxylate] gave a melting point of 117 to 120 °C. Moreover, the IC50 in series [1] (Homo sapiens) was 1 to 10 µM. This molecule also registered an IC50 with DU145 (prostate cancer) of 1 to 10 µM.

As for `COC(=O)c1sc2c(cnc3cc(OCCCN4CCCCC4)c(OC)cc32)c1N` [Example 12, Methyl 3-amino-8-methoxy-7-[3-(piperidin-1-yl)propoxy]thieno[3,2-c]quinoline-2-carboxylate], the melting point was 127 to 130 °C. In series [1] (Homo sapiens), this molecule yielded an IC50 of 1 to 5 µM. In the series with DU145 (prostate cancer), the IC50 was in the range of 1 to 5 µM.

Take `COC(=O)c1sc2c(cnc3cc(OC(=O)N4CCN(C)CC4)c(OC)cc32)c1N` [Example 13, Methyl 3-amino-8-methoxy-7-[(4-methylpiperazine-1-carbonyl)oxy]thieno[3,2-c]quinoline-2-carboxylate]: the melting point fell in the range of 147 to 150 °C. The molecule also displayed an IC50 in series [1] (Homo sapiens) of 10 to 25 µM. Moreover, in the series with DU145 (prostate cancer), the IC50 fell in the range of 10 to 25 µM.

For the molecule `COC(=O)c1sc2c(cnc3cc(OCCN4CCOCC4)c(OC)cc32)c1N` [Example 14, Methyl 3-amino-8-methoxy-7-(2-morpholinoethoxy)thieno[3,2-c]quinoline-2-carboxylate], the melting point lay in the range of 158 to 160 °C. For the same molecule, the IC50 in series [1] (Homo sapiens) is 10 to 25 µM. Moreover, in the series with DU145 (prostate cancer), the IC50 was 10 to 25 µM.

Regarding `COC(=O)c1sc2c(cnc3cc(OC)c(OCCCN4CCOCC4)cc32)c1N` [Example 15, Methyl 3-amino-7-methoxy-8-(3-morpholinopropoxy)thieno[3,2-c]quinoline-2-carboxylate], the melting point lay in the range of 188 to 190 °C. This molecule also gave an IC50 in series [1] (Homo sapiens) of 10 to 25 µM. The same molecule displayed an IC50 in the series on DU145 (prostate cancer) of 10 to 25 µM.

The molecule `COC(=O)c1sc2c(cnc3cc(OC)c(OC)cc32)c1NC(=O)c1ccc(OC)cc1` [Example 16, Methyl 7,8-dimethoxy-3-(4-methoxybenzamido)thieno[3,2-c]quinoline-2-carboxylate] gave a melting point of 255 to 258 °C. Further, the IC50 in series [1] (Homo sapiens) was below 1 µM. For the same molecule, in the series on DU145 (prostate cancer), the half-inhibitory concentration (IC50) is below 1 µM.

As for `COC(=O)c1sc2c(cnc3cc(OC)c(OC)cc32)c1NC(=O)c1ccccc1F` [Example 17, Methyl 3-(2-fluorobenzamido)-7,8-dimethoxythieno[3,2-c]quinoline-2-carboxylate], the melting point fell in the range of 237 to 240 °C. This molecule yielded an IC50 in series [1] (Homo sapiens) of 0.1 to 0.25 µM. The same molecule displayed an IC50 in the series on DU145 (prostate cancer) of 0.5 to 1 µM.

Molecule `COC(=O)c1sc2c(cnc3cc(OC)c(OC)cc32)c1NC(=O)c1ccccc1` [Example 19, Methyl 3-benzamido-7,8-dimethoxythieno[3,2-c]quinoline-2-carboxylate] yielded a melting point of 205 to 208 °C. This molecule also yielded an IC50 in series [1] (Homo sapiens) of 0.1 to 0.25 µM. In the series with DU145 (prostate cancer), this molecule displayed an IC50 of 0.25 to 0.5 µM.

Turning to `COC(=O)c1sc2c(cnc3cc(OC)c(OC)cc32)c1NC(=O)c1ccccc1[N+](=O)[O-]` [Example 20, Methyl 7,8-dimethoxy-3-(2-nitrobenzamido)thieno[3,2-c]quinoline-2-carboxylate], the melting point lay within 178 to 181 °C. In addition, 3 µM corresponded to half-maximal inhibition in series [1] (Homo sapiens) (IC50). The molecule also came in with an IC50 in the series with DU145 (prostate cancer) of 25 µM.

Molecule `COC(=O)c1sc2c(cnc3cc(OC)c(OC)cc32)c1NC(=O)c1ccc(Cl)c([N+](=O)[O-])c1` [Example 22, Methyl 3-(4-chloro-3-nitrobenzamido)-7,8-dimethoxythieno[3,2-c]quinoline-2-carboxylate] returned a melting point of 260 to 262 °C. The IC50 in series [1] (Homo sapiens) lay in the range of 0.1 to 0.5 µM. The molecule further registered an IC50 in the series with DU145 (prostate cancer) of 0.5 to 1 µM.

`COC(=O)c1sc2c(cnc3cc(OC)c(OC)cc32)c1NC(=O)C(F)(F)F` [Example 23, Methyl 7,8-dimethoxy-3-(2,2,2-trifluoroacetamido)thieno[3,2-c]quinoline-2-carboxylate] registered a melting point of 224 to 230 °C. Also, in series [1] (Homo sapiens), half-maximal inhibition (IC50) was put at 0.2 µM. The IC50 with DU145 (prostate cancer) was 0.75 µM.

As to `COC(=O)c1sc2c(cnc3cc(OC)c(OC)cc32)c1NC(=O)C(=O)N1CCN(C)CC1` [Example 25, Methyl 7,8-dimethoxy-3-[2-(4-methylpiperazin-1-yl)-2-oxoacetamido]thieno[3,2-c]quinoline-2-carboxylate], the IC50 (in series [1] (Homo sapiens); in the series with DU145 (prostate cancer)) was 1 to 10 µM throughout.

As to `COC(=O)c1sc2c(cnc3cc(OC)c(OC)cc32)c1NC(=O)C(=O)N1CCOCC1` [Example 26, Methyl 7,8-dimethoxy-3-(2-morpholino-2-oxoacetamido)thieno[3,2-c]quinoline-2-carboxylate], the melting point was 232 to 234 °C. In addition, the IC50 in series [1] (Homo sapiens) lay within 50 to 100 µM. In addition, the IC50 in the series on DU145 (prostate cancer) fell in the range of 25 to 50 µM.

In the case of `COC(=O)c1sc2c(cnc3cc(OC)c(OC)cc32)c1NC(=O)C(=O)N1CCN(c2ccncc2)CC1` [Example 27, Methyl 7,8-dimethoxy-3-{2-oxo-2-[4-(pyridin-4-yl)piperazin-1-yl]acetamido}thieno[3,2-c]quinoline-2-carboxylate], the melting point fell in the range of 245 to 248 °C. The same molecule came in with an IC50 in series [1] (Homo sapiens) of 1 to 10 µM. The molecule also came in with an IC50 in the series with DU145 (prostate cancer) of 1 to 10 µM.

As for `COC(=O)c1sc2c(c[n+](C)c3cc(OC)c(OC)cc23)c1N` [Example 30, 3-amino-7,8-dimethoxy-2-(methoxycarbonyl)-5-methylthieno[3,2-c]quinolin-5-ium iodide], the IC50 in series [1] (Homo sapiens) is 5 to 10 µM; with DU145 (prostate cancer) it was above 10 µM.

For `COC(=O)C[n+]1cc2c(N)c(C(=O)OC)sc2c2cc(OC)c(OC)cc21` [Example 31, 3-amino-7,8-dimethoxy-5-(2-methoxy-2-oxoethyl)-2-(methoxycarbonyl)thieno[3,2-c]quinolin-5-ium bromide], the IC50 is 50 to 100 µM in series [1] (Homo sapiens) and above 100 µM in the series with DU145 (prostate cancer).

For the molecule “Methyl 7,8-dimethoxy-3-(2-aminobenzamido)thieno[3,2-e]quinoline-2-carboxylate [Example 21]”, the IC50 in series [1] is below 1 µM.

In general, melting point refers to the temperature of the solid-liquid transition. As a reminder, the IC50 is the concentration that gives 50% inhibition. The low end stands for greater potency in that assay, the high end for weaker potency in that assay.

These data come from patent US20150065499A1, “3-AMINOTHIENO[3,2-c]QUINOLINE DERIVATIVES, METHODS OF PREPARATION AND USES” (TEMPLE UNIVERSITY - OF THE COMMONWEALTH SYSTEM OF HIGHER …, priority 2012, published 2015).
